Where “and” joins values, the source holds several entries; their conditions need not be identical. Equal entries are not always repeated.
What was measured:
[1] = 298.15 K, 101 kPa, Liquid; for speed of sound: Linear variable-path acoustic interferometer; for mass density: Pycnometric method
[2] = refractive index (Na D-line) (dimensionless); conditions: 298.15 K; 101.33 kPa; Liquid; Abbe refractometer
[3] = xn = mol fraction of the nth substance listed; conditions: 298.15 K, 101 kPa, Liquid; for speed of sound: Linear variable-path acoustic interferometer; for mass density: Pycnometric method
[4] = refractive index (Na D-line) (dimensionless); xn = mol fraction of the nth substance listed; conditions: 298.15 K, 101 kPa, Liquid, Abbe refractometer

COCCOCCO [2-(2-methoxyethoxy)ethanol]
Conditions	mass density [kg/m3]	refractive index	speed of sound [m/s]
[1]	1016.95	–	1422.6
[2]	–	1.425	–

COCCOCCO [2-(2-methoxyethoxy)ethanol] + O
Conditions	mass density, [3] [kg/m3]	refractive index, [4]	speed of sound, [3] [m/s]
x1 = 0.013	1002.42	1.341	1546
x1 = 0.026	1008.21	1.349	1582
x1 = 0.051	1017.19	1.36	1640
x1 = 0.064	1021.22	1.366	1646.7
x1 = 0.074	1023.92	1.37	1662
x1 = 0.101	1029.24	1.378	1674
x1 = 0.15	1034.64	1.39	1674
x1 = 0.187	1035.66	1.396	1660
x1 = 0.305	1034.8	1.408	1606
x1 = 0.401	1031.91	1.412	1562
x1 = 0.506	1028.25	1.415	1514
x1 = 0.646	1024.01	1.418	1474
x1 = 0.766	1021.27	1.419	1454
x1 = 0.895	1018.65	1.422	1442
x1 = 1	1016.95	1.425	1422.6

CCOCCO [2-ethoxyethan-1-ol]
Conditions	mass density [kg/m3]	refractive index	speed of sound [m/s]
[1]	925.39	–	1302.5
[2]	–	1.4058	–

CCOCCO [2-ethoxyethan-1-ol] + O
Conditions	mass density, [3] [kg/m3]	refractive index, [4]	speed of sound, [3] [m/s]
x1 = 0.0092	996.93	1.3389	1541.3
x1 = 0.0177	997.02	1.3415	1553.1
x1 = 0.025	997.2	1.3442	1575.6
x1 = 0.0502	998.06	1.3542	1626.9
x1 = 0.0767	998.24	1.3628	1649.6
x1 = 0.1024	996.67	1.3709	1646.5
x1 = 0.183	988.37	1.3854	1567.6
x1 = 0.299	974.41	1.394	1517.4
x1 = 0.4058	963.11	1.3979	1458.1
x1 = 0.5059	954.22	1.4012	1415.2
x1 = 0.5996	947.01	1.4025	1385.7
x1 = 0.706	940.07	1.4039	1359.6
x1 = 0.8431	933.47	1.4046	1330.4
x1 = 0.8716	932.35	1.4049	1325.6
x1 = 1	925.39	1.4058	1302.5

COCCO [2-methoxyethan-1-ol]
Conditions	mass density [kg/m3]	refractive index	speed of sound [m/s]
[1]	960.23	–	1341.7
[2]	–	1.4002	–

COCCO [2-methoxyethan-1-ol] + O
Conditions	mass density, [3] [kg/m3]	refractive index, [4]	speed of sound, [3] [m/s]
x1 = 0.0202	999.08	1.34	1546.5
x1 = 0.04	1001.08	1.346	1581
x1 = 0.0539	1002.4	1.35	1600.9
x1 = 0.0822	1004.71	1.357	1636.5
x1 = 0.101	1005.84	1.361	1643.7
x1 = 0.1509	1007.02	1.37	1654.7
x1 = 0.2036	1005.67	1.378	1641.7
x1 = 0.3025	999.82	1.386	1587.3
x1 = 0.4033	992.74	1.391	1532.3
x1 = 0.5009	985.91	1.394	1488.5
x1 = 0.5514	982.57	1.395	1470.9
x1 = 0.6976	974	1.396	1418.8
x1 = 0.7855	969.57	1.398	1392
x1 = 0.889	964.87	1.398	1369.3
x1 = 1	960.23	1.4002	1341.7

CCOCCOCCO [3,6-dioxa-1-octanol]
Conditions	mass density [kg/m3]	refractive index	speed of sound [m/s]
[1]	984.6	–	1378
[2]	–	1.425	–

CCOCCOCCO [3,6-dioxa-1-octanol] + O
Conditions	mass density, [3] [kg/m3]	refractive index, [4]	speed of sound, [3] [m/s]
x1 = 0.013	1001.37	1.3424	1562
x1 = 0.025	1005.93	1.3515	1602
x1 = 0.05	1013.24	1.3654	1656
x1 = 0.06	1015.27	1.3695	1670.5
x1 = 0.076	1017.84	1.376	1670
x1 = 0.101	1020.05	1.3837	1658
x1 = 0.152	1019.56	1.396	1621
x1 = 0.202	1017.51	1.4028	1601.9
x1 = 0.302	1011.81	1.4108	1549.5
x1 = 0.402	1005.59	1.414	1500
x1 = 0.519	999.21	1.4198	1460
x1 = 0.59	996.2	1.4203	1442
x1 = 0.775	990.78	1.4228	1412
x1 = 0.852	988.76	1.4235	1398
x1 = 1	984.6	1.425	1378

O [water]
Conditions	mass density [kg/m3]	refractive index
[1]	999.704	–
[2]	–	1.333 and 1.3325

O [water] + CCOCCO
x2 = 0
Conditions	mass density [kg/m3]	refractive index
[3]	999.704	–
[4]	–	1.3325

O [water] + CCOCCOCCO
x2 = 0
Conditions	mass density [kg/m3]	refractive index
[3]	999.704	–
[4]	–	1.3325

O [water] + COCCO
x2 = 0
Conditions	mass density [kg/m3]	refractive index
[3]	999.704	–
[4]	–	1.333

O [water] + COCCOCCO
x2 = 0
Conditions	mass density [kg/m3]	refractive index
[3]	999.704	–
[4]	–	1.333
